Data on 2 compounds can be found in paper PMC3355106, “Structural Basis for Specificity of Propeptide-Enzyme Interaction in Barley C1A Cysteine Peptidases” (PLoS ONE, 2012).

Peptide text beside a SMILES is read from it. * marks the point of attachment. AMC = Cc1cc(=O)oc2cc(N*)ccc12; Cbz = O=C(OCc1ccccc1)*

Experiment in all cases: fluorescence of released AMC
Holding throughout (assay type): biochemical
Common to all, as to settings: pH 6.0, 30 °C, 10 mM L-cysteine, 10 mM EDTA, 0.01% Brij35

One assay has as its target T1, HvPap-16 (Hordeum vulgare, UniProt B4ESF4).
T1 construct: gene pap-16; the propeptide cloning list prints HvPap-17 (A23-V156) instead of HvPap-16

A further assay has as its target T2, HvPap-4 (Hordeum vulgare, UniProt B4ESE6).
T2 construct: gene pap-4; propeptide printed as R25-D134

The target in a further assay is T3, HvPap-6 (Hordeum vulgare, UniProt B4ESE8).
T3 construct: gene pap-6; propeptide printed as A25-E131

Another assay has as its target T4, BovCathB (Bos taurus, UniProt P07688).
T4 construct: gene CTSB; commercial enzyme (Calbiochem)

T2 sequence (B4ESE6 entry or part of it): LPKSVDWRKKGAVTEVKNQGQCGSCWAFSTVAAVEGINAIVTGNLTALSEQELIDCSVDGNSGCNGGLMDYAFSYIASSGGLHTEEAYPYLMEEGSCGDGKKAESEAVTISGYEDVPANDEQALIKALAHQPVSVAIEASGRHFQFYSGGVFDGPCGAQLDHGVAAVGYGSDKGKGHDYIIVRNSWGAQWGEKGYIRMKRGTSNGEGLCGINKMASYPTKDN
T3 sequence (B4ESE8 entry or part of it): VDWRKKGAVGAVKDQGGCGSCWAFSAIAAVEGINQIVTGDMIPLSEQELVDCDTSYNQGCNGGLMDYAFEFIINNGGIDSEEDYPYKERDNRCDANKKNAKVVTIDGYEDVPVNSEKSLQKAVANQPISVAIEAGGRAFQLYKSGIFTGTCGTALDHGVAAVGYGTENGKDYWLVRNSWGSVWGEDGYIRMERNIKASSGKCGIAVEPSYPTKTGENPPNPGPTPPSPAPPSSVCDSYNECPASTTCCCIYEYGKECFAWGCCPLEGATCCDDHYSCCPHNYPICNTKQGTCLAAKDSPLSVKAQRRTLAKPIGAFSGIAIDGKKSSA
T1 sequence (B4ESF4 entry or part of it): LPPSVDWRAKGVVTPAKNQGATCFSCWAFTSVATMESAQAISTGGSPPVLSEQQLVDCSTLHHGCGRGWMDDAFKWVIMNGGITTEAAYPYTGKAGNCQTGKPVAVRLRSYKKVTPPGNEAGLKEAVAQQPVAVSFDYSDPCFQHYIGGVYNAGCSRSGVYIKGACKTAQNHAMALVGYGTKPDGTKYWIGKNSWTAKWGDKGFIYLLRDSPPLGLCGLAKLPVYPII

With `Cc1cc(=O)oc2cc(NC(=O)[C@H](CCCNC(=N)N)NC(=O)[C@H](Cc3ccccc3)NC(=O)OCc3ccccc3)ccc12` [Z-FR-AMC] (Cbz-Phe-Arg-{AMC}), the “fluorescence of released AMC” value at HvPap-16, on HvPap-4 and on HvPap-6 was “Z-FR-AMC (for cathepsin L) or Z-RR-AMC (for cathepsin B) fluorescent substrates were added” throughout.
For `Cc1cc(=O)oc2cc(NC(=O)[C@H](CCCNC(=N)N)NC(=O)[C@H](CCCNC(=N)N)NC(=O)OCc3ccccc3)ccc12` [Z-RR-AMC] (Cbz-Arg-Arg-{AMC}), the “fluorescence of released AMC” value at BovCathB is on record as “Z-FR-AMC (for cathepsin L) or Z-RR-AMC (for cathepsin B) fluorescent substrates were added”.
